Data from patent publication US20080171355A1, “DEVICE FOR TESTING THE EFFECTIVENESS OF DISINFECTANTS ON PROTOZOAN PARASITES” (priority 2006, published 2008).

System: Oocysts of Eimeria acervulina
Assay type: cell-based

CC(=O)OO [Peracetic Acid]
Sporulation Rate (%): 65.9%
